Measurements as given in US20210269434A1, “TRICYCLIC COMPOUNDS AS INHIBITORS OF KRAS” (Incyte Corporation, priority 2020, published 2021).

Columns and labels:
[1] = biological target: KRAS G12C (Homo sapiens, UniProt P01116, G12C); assay: GDP-GTP exchange assay (KRAS_G12C exchange); type: biochemical; conditions: bodipy-GDP loaded KRAS G12C 2.5 nM, SOS1 150 nM, GppNHp; 2 hours pre-incubation, 2 hours reaction; read-out: G12C_exchange
Description: Example A. GDP-GTP Exchange Assay
The inhibitor potency of the exemplified compounds was determined in a fluorescence based guanine nucleotide exchange assay, which measures the exchange of bodipy-GDP (fluorescently labeled GDP) for GppNHp (Non-hydrolyzable GTP analog) to generate the active state of KRAS in the presence of SOS1 (guanine nucleotide exchange factor). Inhibitors were serially diluted in DMSO and a volume of 0.1 μL was transferred to the wells of a black low volume 384-well plate. 5 μL/well volume of bodipy-loaded KRAS G12C diluted to 5 nM in assay buffer (25 mM Hepes pH 7.5, 50 mM NaCl, 10 mM MgCl2 and 0.01% Brij-35) was added to the plate and pre-incubated with inhibitor for 2 hours at ambient temperature. Appropriate controls (enzyme with no inhibitor or with a G12C inhibitor (AMG-510)) were included on the plate. The exchange was initiated by the addition of a 5 μL/well volume containing 1 mM GppNHp and 300 nM SOS1 in assay buffer. The 10 μL/well reaction concentration of the bodipy-loaded KRAS G12C, GppNHp, and SOS1 were 2.5 nM, 500 uM, and 150 nM, respectively. The reaction plates were incubated at ambient temperature for 2 hours, a time estimated for complete GDP-GTP exchange in the absence of inhibitor. For the KRAS G12D and G12V mutants, similar guanine nucleotide exchange assays were used with 2.5 nM as final concentration for the bodipy loaded KRAS proteins and with 4 hours and 3 hours incubation after adding GppNHp-SOS1 mixture for G12D and G12V respectively. A cyclic peptide described to selectively bind G12D mutant (Sakamoto et al., BBRC 484.3 (2017), 605-611) or internal compounds with confirmed binding were used as positive controls in the assay plates. Fluorescence intensities were measured on a PheraStar plate reader instrument (BMG Labtech) with excitation at 485 nm and emission at 520 nm.
Either GraphPad prism or XLfit was used to analyze the data. The IC50 values were derived by fitting the data to a four parameter logistic equation producing a sigmoidal dose-response curve with a variable Hill coefficient. Prism equation: Y=Bottom+(Top−Bottom)/(1+10^((Log lC50−X)*Hill slope)); XLfit equation: Y=(A+((B−A)/(1+((X/C)^D)))) where X is the logarithm of inhibitor concentration and Y is the response.

[2] = test system: MIA PaCa-2 (KRAS G12C) cells; assay: Cellular pERK HTRF assay (KRAS_G12C pERK); type: cell-based, human; conditions: Homo sapiens, MIA PaCa-2, 4 hours incubation, read-out: G12C_pERK
Description: Example C: Cellular pERK HTRF Assay
MIA PaCa-2 (KRAS G12C; ATCC® CRL-1420), A427 (KRAS G12D; ATCC® HTB53), HPAF-II (KRAS G12D; ATCC® CRL-1997) and NCI-H838 (KRAS WT; ATCC® CRL-5844) cells are purchased from ATCC and maintained in RPMI 1640 media supplemented with 10% FBS (Gibco/Life Technologies). The cells are plated at 5000 cells per well (8 uL) into Greiner 384-well low volume, flat-bottom, tissue culture treated white plates and incubated overnight at 37° C., 5% CO2. The next morning, test compound stock solutions are diluted in media at 3× the final concentration, and 4 uL are added to the cells. The plate is mixed by gentle rotation for 30 seconds (250 rpm) at room temperature. The cells are incubated with the KRAS G12C and G12D compounds for 4 hours or 2 hours respectively at 37° C., 5% CO2.
4 uL of 4× lysis buffer with blocking reagent (1:25) (Cisbio) are added to each well and plates are rotated gently (300 rpm) for 30 minutes at room temperature. 4 uL per well of Cisbio anti Phospho-ERK 1/2 d2 is mixed with anti Phospho-ERK 1/2 Cryptate (1:1) are added to each well, mixed by rotation and incubated overnight in the dark at room temperature. Plates are read on the Pherastar plate reader at 665 nm and 620 nm wavelengths. IC50 determination is performed by fitting the curve of inhibitor percent inhibition versus the log of the inhibitor concentration using the GraphPad Prism 7 software.

Sequence of KRAS G12C (P01116 1-188 isoform P01116-2 G12C): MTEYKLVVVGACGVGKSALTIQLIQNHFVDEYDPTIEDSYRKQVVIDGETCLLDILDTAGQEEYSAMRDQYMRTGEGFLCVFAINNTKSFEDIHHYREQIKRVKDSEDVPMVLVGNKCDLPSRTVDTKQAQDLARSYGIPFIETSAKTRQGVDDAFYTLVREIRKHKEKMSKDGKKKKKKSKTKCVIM

Structure (SMILES) | IC50 [1] [nM] | IC50 [2] [nM]
Cc1c(Cl)cc2[nH]ncc2c1-c1c(Cl)cc2c(nc(OC[C@@H]3CCCN3C)c3nnn([C@H]4CCN(C(=O)/C=C/CN(C)C)[C@H](CC#N)C4)c32)c1F [Example 183a, 2-((2S,4S)-4-(8-chloro-7-(6-chloro-5-methyl-1H-indazol-4-yl)-6-fluoro-4-(((S)-1-methylpyrrolidin-2-yl)-methoxy)-1H-[1,2,3]triazolo-[4,5-c]quinolin-1-yl)-1-((E)-4-(dimethylamino)but-2-enoyl)piperidin-2-yl)acetonitrile] | ≤ 100 | ≤ 100
C=CC(=O)N1CC[C@H](n2nnc3c(N4CC(C)(N(C)C)C4)nc4c(F)c(-c5c(C)c(C)cc6[nH]ncc56)c(C)cc4c32)C[C@H]1CC#N (single isomer, unassigned) [Example 198a] | ≤ 100 | ≤ 100
C=CC(=O)N1CCC(n2cnc3c(-c4c(O)cccc4F)nc4c(F)c(-c5c(O)cccc5F)c(Cl)cc4c32)CC1 [Example 12, 1-(4-(8-chloro-6-fluoro-4,7-bis(2-fluoro-6-hydroxyphenyl)-1H-imidazo[4,5-c]-quinolin-1-yl)piperidin-1-yl)prop-2-en-1-one] | 100 to 1000 | 1000 to 5000
CC#CC(=O)N1CC[C@H](n2nnc3c(OC[C@@H]4CCCN4C)nc4c(Cl)c(-c5cc(F)cc6cccnc56)c(Cl)cc4c32)C[C@H]1CC#N (single isomer, unassigned) [Example 280a] | ≤ 100 | ≤ 100
C=CC(=O)N1CCC(n2cnc3c(OC[C@@H]4CCCN4C)nc4c(F)c(-c5cccc(O)c5F)c(Cl)cc4c32)CC1 (single isomer, unassigned) [Example 3a] | 1000 to 5000 | –
C=CC(=O)N1CC(n2c(=O)[nH]c3c(=O)n(-c4ccccc4)c4nc(-c5cc(O)cc6ccccc56)c(F)cc4c32)C1 [Example 28, 1-(1-acryloylazetidin-3-yl)-8-fluoro-7-(3-hydroxynaphthalen-1-yl)-5-phenyl-3,5-dihydro-1H-imidazo[4,5-c][1,8]naphthyridine-2,4-dione] | 100 to 1000 | –
C=CC(=O)N1CCC(n2cnc3c(OCc4ccnn4C)nc4c(F)c(-c5cc(O)cc6ccccc56)c(Cl)cc4c32)CC1 [Example 8, 1-(4-(8-chloro-6-fluoro-7-(3-hydroxynaphthalen-1-yl)-4-((1-methyl-1H-pyrazol-5-yl)methoxy)-1H-imidazo[4,5-c]quinolin-1-yl)piperidin-1-yl)prop-2-en-1-one] | 100 to 1000 | –

Further lines, results first:

IC50 [1] [nM] | IC50 [2] [nM] | Structure (SMILES)
≤ 100 | ≤ 100 | C=CC(=O)N1CC[C@H](n2cnc3c(N4CC(N(C)C)C4)nc4c(F)c(-c5cc(O)cc6ccccc56)c(Cl)cc4c32)C[C@H]1C(N)=O [Example 21, (2S,4S)-1-acryloyl-4-(8-chloro-4-(3-(dimethylamino)azetidin-1-yl)-6-fluoro-7-(3-hydroxynaphthalen-1-yl)-1H-imidazo[4,5-c]quinolin-1-yl)piperidine-2-carboxamide]
≤ 100 | ≤ 100 | C=CC(=O)N1C[C@H](C)[C@@H](n2cnc3c(N4CC(N(C)C)C4)nc4c(F)c(-c5cc(O)cc6ccccc56)c(Cl)cc4c32)C1 (racemic) [Example 31a, 1-((trans)-3-(8-chloro-4-(3-(dimethylamino)azetidin-1-yl)-6-fluoro-7-(3-hydroxynaphthalen-1-yl)-1H-imidazo[4,5-c]quinolin-1-yl)-4-methylpyrrolidin-1-yl)prop-2-en-1-one]
≤ 100 | ≤ 100 | Cc1cccc(-c2c(C)cc3c(nc(N4CC(C)(N(C)C)C4)c4nnn([C@H]5CCN(C(=O)/C=C/CF)[C@H](CC#N)C5)c43)c2F)c1C [Example 209, 2-((2S,4S)-4-(4-(3-(dimethylamino)-3-methylazetidin-1-yl)-7-(2,3-dimethylphenyl)-6-fluoro-8-methyl-1H-[1,2,3]triazolo[4,5-c]quinolin-1-yl)-1-((E)-4-fluorobut-2-enoyl)piperidin-2-yl)acetonitrile]
